Test results published in patent US8658604B2, “Template-fixed beta-hairpin peptidomimetics with protease inhibitory activity” (Polyphor Ltd, priority 2005, dated 2014).
Read-outs that look alike come from different tables or passages of the source. Where a SMILES comes first, the peptide text is derived from it.

Columns and labels:
[1] = target: T1, Trypsin, from human pancreas (Homo sapiens, UniProt P07477)
Chymase, from human skin [2] = target: T2, Chymase, from human skin (Homo sapiens, UniProt P23946)
T2 sequence (P23946 22-247): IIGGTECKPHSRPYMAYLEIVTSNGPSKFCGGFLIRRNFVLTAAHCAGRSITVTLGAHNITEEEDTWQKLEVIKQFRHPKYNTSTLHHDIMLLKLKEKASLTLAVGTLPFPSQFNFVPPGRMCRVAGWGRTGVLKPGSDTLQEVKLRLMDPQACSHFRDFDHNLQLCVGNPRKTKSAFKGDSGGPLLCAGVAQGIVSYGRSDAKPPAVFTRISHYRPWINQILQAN

[3] = target: T3, Chymotrypsin, from human pancreas (Homo sapiens, UniProt P17538)
[4] = target: T4, Elastase from human neutrophils (Homo sapiens, UniProt P08246); experiment: Enzymatic assay, elastase
T4 sequence (P08246 30-267): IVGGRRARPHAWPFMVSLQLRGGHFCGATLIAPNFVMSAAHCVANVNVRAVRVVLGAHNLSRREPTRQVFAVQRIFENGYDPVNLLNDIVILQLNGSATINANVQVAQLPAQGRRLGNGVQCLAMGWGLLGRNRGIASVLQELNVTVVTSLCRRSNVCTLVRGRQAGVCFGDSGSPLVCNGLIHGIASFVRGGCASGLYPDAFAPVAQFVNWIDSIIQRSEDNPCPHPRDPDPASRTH

[5] = target: T5, CathepsinG, from human neutrophils (Homo sapiens, UniProt P08311); experiment: Enzymatic assay, cathepsin G; settings: Cathepsin G IC50
T5 sequence (P08311 21-244): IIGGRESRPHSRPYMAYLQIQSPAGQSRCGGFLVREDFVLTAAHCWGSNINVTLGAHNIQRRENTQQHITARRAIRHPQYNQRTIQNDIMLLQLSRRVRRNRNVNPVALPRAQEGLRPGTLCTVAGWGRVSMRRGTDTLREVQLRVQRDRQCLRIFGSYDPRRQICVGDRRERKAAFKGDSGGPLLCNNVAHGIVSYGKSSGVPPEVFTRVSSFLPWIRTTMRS

[6] = type: in vitro ADME; settings: 10 µM
Description: 405 μl of plasma/albumin solution were placed in a polypropylene (PP) tube and spiked with 45 μl of compound from a […] solution B, derived from 135 μl of PBS and 15 μl of 1 mM peptide in PBS, pH 7.4. 150 μl aliquots were transferred into individual wells of the 10 kDa filter plate (Millipore MAPPB 1010 Biomax membrane). For “0 minutes controls”: 270 μl of PBS were placed in a PP tube and 30 μl of stock solution B was added and vortexed. 150 μl of control solution were placed into one well of the filter plate and served as “filtered control”.
Further 150 μl of control solution were placed directly into a receiver well (reserved for filtrate) and served as “not-filtered control”. The entire plate including evaporation lid was incubated for 60 min at 37° C. Plasma samples (rat plasma: Harlan Sera lab UK, human plasma: Blutspendezentrum Zürich) were centrifuged at least for 2 h at 4300 rpm (3500 g) and 15° C. in order to yield 100 filtrate. For “serum albumin”-samples (freshly prepared human albumin: Sigma A-4327, rat albumin: Sigma A-6272, all at 40 mg/ml concentration in PBS) approximately 1 hour of centrifugation was sufficient. The filtrates in the receiver PP plate were analysed by LC/MS as follower follows: Column: Jupiter C18 (Phenomenex), mobile phases: (A) 0.1% formic acid in water and (B) acetonitrile, gradient: 5%-100% (B) in 2 minutes, electrospray ionization, MRM detection (triple quadrupole). The peak areas were determined and triplicate values were averaged. The binding was expressed in percent of the (filtered and not-filtered time point 0 min) control 1 and 2 by: 100−(100×T60/T0). The average from these values was then calculated.

[7] = Pharmacokinetic study after single oral (gavage) and intravenous administration in rats; settings: rat
Description: 2.6. Pharmacokinetic Study (PK)
Pharmacokinetic Study after Single Oral (Gavage) and Intravenous Administration in Rats
Blood samples (approx. 0.24 ml) were taken following the schedule below at different time points into heparinized tubes by automated blood sampling using the DiLab AccuSampler. When a problem occurred during automated blood sampling, blood was sampled by retro-orbital bleeding under light isoflurane anesthesia. Samples were taken at the following time points: 0, 5 min (only i.v.), 15, 30 min and 1, 2, 4, 8, 16, 24 and 36 (only p.o.) hours and added to heparinized tubes. Plasma was removed from pelleted cells upon centrifugation and frozen at −80° C. prior to HPLC-MS analysis.
Preparation of the Plasma Calibration Samples
“Blank” rat plasma from untreated animals was used. […] The OASIS® HLB cartridges were conditioned with 1 ml of methanol and then with 1 ml of 1% NH3 in water. Samples were then diluted with 400 μl of 1% NH3 in water and loaded. The plate was washed with 1 ml of methanol/1% NH3 in water 5/95. Elution was performed using 1 ml of 0.1% TFA in methanol.
The plate containing eluates was introduced into the concentrator system and taken to dryness. The residues were dissolved in 100 μl of formic acid 0.1%/acetonitrile, 95/5 (v/v) and analysed in the HPLC/MS on a reverse phase analytical column (Jupiter C18, 50×2.0 mm, 5 μm, Phenomenex), using gradient elution (mobile phases A: 0.1% formic acid in water, B: Acetonitrile; from 5% B to 100% B in 2 min.).
Preparation of Plasma Samples
From each sample 100 μl of plasma were taken for the extraction. If the volume was less than 100 μl the appropriate amount of “blank” mouse plasma was added in order to keep the matrix identical to the calibration curve. Samples were then spiked with IS and processed as described for the calibration curve.
Pharmacokinetic Evaluation
The area under the curve AUC was calculated by the linear trapezoidal rule. AUC(t-∞) was estimated as Ct/b (b: elimination rate constant). […] the sum of AUC(0-t) and AUC(t-∞). Elimination half-life was calculated by the linear regression on at least three data points during the elimination phase. The time intervals selected for the half-life determinations were evaluated by the correlation coefficient (r^2), which should be at least above 0.85 and most optimally above 0.96. In case of i.v. administration the initial concentration at tzero was determined by extrapolation of the curve through the first two time points.

[8] = target: T1, Trypsin, from human pancreas; experiment: Enzymatic assay, trypsin; settings: at 100 μM
Chymase, from human skin [9] = target: T2, Chymase, from human skin; experiment: Enzymatic assay, chymase
[10] = target: T6, Thrombin, from Human Plasma (Homo sapiens, UniProt P00734); experiment: Enzymatic assay, thrombin
[11] = tested on: Tryptase, from human lung; experiment: Enzymatic assay, tryptase; settings: at 100 μM
[12] = target: Urokinase from human urine (Homo sapiens, UniProt P00749); experiment: Enzymatic assay, urokinase
[13] = target: T3, Chymotrypsin, from human pancreas; experiment: Enzymatic assay, chymotrypsin
[14] = target: T7, Coagulation Factor Xa, from uman plasma (Homo sapiens, UniProt P00742); experiment: Enzymatic assay, coagulation factor Xa
HELA cells (Acc57) = experiment: Cytotoxicity assay (MTT reduction), HELA cells; type: cell-based; settings: Hela cells
Procedure, shortened: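 HeLa cells were grown for 24 h, then exposed to peptides at 12.5, 25 and 50 μM in triplicate for 48 h at 37 °C. MTT reduction was read at 595 nm and growth % calculated relative to time-zero wells. LC50 interpolated by linear trend at −50% growth, GI50 at 50%.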

[15] = target: T5, CathepsinG, from human neutrophils
[16] = target: T6, Thrombin, from Human Plasma
[17] = target: T7, Coagulation Factor Xa, from uman plasma

T3 sequence (P17538 19-263): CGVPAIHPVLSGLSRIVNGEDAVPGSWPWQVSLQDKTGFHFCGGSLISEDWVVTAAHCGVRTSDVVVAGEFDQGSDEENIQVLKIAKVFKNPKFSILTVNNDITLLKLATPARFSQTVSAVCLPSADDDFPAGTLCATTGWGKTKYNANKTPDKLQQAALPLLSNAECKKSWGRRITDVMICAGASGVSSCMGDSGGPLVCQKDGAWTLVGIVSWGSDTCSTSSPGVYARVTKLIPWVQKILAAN
T7 sequence (P00742 235-488 limits assumed): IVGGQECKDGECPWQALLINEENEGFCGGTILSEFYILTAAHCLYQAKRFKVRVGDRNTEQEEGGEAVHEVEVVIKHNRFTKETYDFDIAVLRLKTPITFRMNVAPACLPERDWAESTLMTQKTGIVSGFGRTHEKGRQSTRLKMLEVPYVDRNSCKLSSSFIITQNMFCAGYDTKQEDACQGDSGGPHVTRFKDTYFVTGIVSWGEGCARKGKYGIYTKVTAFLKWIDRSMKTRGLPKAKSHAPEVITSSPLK
T7 sequence (P00742 41-179 limits assumed): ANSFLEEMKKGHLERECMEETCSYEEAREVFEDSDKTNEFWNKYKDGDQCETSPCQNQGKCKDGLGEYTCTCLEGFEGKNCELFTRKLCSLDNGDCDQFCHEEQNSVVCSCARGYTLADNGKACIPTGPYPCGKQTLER

Compound: CC[C@H](C)[C@@H]1NC(=O)[C@@H]2CCCN2C(=O)[C@@H]2CCCN2C(=O)[C@H](CCC(=O)O)NC(=O)[C@H](CO)NC(=O)[C@H](CCCCN)NC(=O)[C@H]([C@@H](C)O)NC(=O)[C@@H]2CSSC[C@H](NC1=O)C(=O)N[C@@H](CO)C(=O)N1CCC[C@@H]1C(=O)N1CCC[C@H]1C(=O)N[C@@H](Cc1ccccc1)C(=O)N2 [Ex. 21] (HELM PEPTIDE1{F.C.T.K.S.E.P.P.I.C.S.[dP].P}$PEPTIDE1,PEPTIDE1,2:R3-10:R3|PEPTIDE1,PEPTIDE1,1:R1-13:R2$$$V2.0)
- Trypsin at 100 μM % [1]: 95.6%
- Chymase at 100 μM % (Chymase, from human skin [2]): 5%
- Chymotrypsin at 100 μM % [3]: 2.6%
- IC50 ([4]; Elastase IC50): 16.4 nM
- IC50 [5]: 97 nM

Compound: CC[C@H](C)[C@@H]1NC(=O)[C@@H]2CCCN2C(=O)[C@@H]2CCCN2C(=O)[C@H](CC(=O)O)NC(=O)[C@H](CO)NC(=O)[C@H](CCCCN)NC(=O)[C@H]([C@@H](C)O)NC(=O)[C@@H]2CSSC[C@H](NC1=O)C(=O)N[C@@H](Cc1ccccc1)C(=O)N1CCC[C@@H]1C(=O)N1CCC[C@H]1C(=O)N[C@@H](CCCNC(=N)N)C(=O)N2 [Ex. 75] (HELM PEPTIDE1{R.C.T.K.S.D.P.P.I.C.F.[dP].P}$PEPTIDE1,PEPTIDE1,2:R3-10:R3|PEPTIDE1,PEPTIDE1,1:R1-13:R2$$$V2.0)
- Stability human Plasma t1/2 [6]: 300 min
- Stability rat Plasma t1/2 [6]: 300 min
- half-life ([7]; male, Wistar, in vivo, iv, 5 mg/kg): 30 min
- level at 0.25 h ([7]; male, Wistar, iv, 5 mg/kg): 5770 ng/mL
- level at 0.5 h ([7]; male, Wistar, iv, 5 mg/kg): 3460 ng/mL
- level at 4 h ([7]; male, Wistar, iv, 5 mg/kg): 18 ng/mL
- Cmax ([7]; male, Wistar, po): 46 ng/mL
- Vd (apparent distribution volume) ([7]; male, Wistar, po, 50 mg/kg): 1008 mL/kg
- level at 4 h ([7]; male, Wistar, po, 50 mg/kg): 24 ng/mL
- apparent distribution volume after oral administration, fold higher than after i.v. [7]: about 1.8 fold
- % absorbed (F) (percentage of normalized AUC0-∞ po. against normalized AUC0-∞ i.v.) ([7]; 5 mg/kg): 100%
- % absorbed (F) (percentage of normalized AUC0-∞ po. against normalized AUC0-∞ i.v.) ([7]; 50 mg/kg): 1.3%
- Cmax norm ([7]; iv, 5 mg/kg): 0.08 ng/mL
- initial distribution volume ([7]; iv, 5 mg/kg): 355 mL/kg
- Cmax norm ([7]; po, 50 mg/kg): 0.25 ng/mL
- Trypsin at 100 μM % [8]: 92.6%
- Chymase at 100 μM % (Chymase, from human skin [9]): 0%
- Elastase at 100 μM % ([4]; at 100 μM (stated in cell instead of IC50)): 69.1 at %
- Thrombin at 100 μM % [10]: 1.1%
- Tryptase at 100 μM % [11]: 0%
- Urokinase at 100 μM % [12]: 5.7%
- IC50 [5]: 86 nM
- Chymotrypsin at 100 μM % ([13]; at 100 μM): 7.8 at 100 μM %
- FXa at 100 μM % [14]: 5.7%

Compound: CCCCCCCC[C@@H]1NC(=O)[C@H](CO)NC(=O)[C@H](C)NC(=O)[C@H]([C@@H](C)O)NC(=O)[C@@H]2CSSC[C@H](NC(=O)[C@H](CCC(N)=O)NC(=O)[C@@H]3CCCN3C(=O)[C@@H]3CCCN3C1=O)C(=O)N[C@@H](Cc1ccc(O)cc1)C(=O)N1CCC[C@@H]1C(=O)N1CCC[C@H]1C(=O)N[C@@H](CCCC)C(=O)N2 [Ex. 81] (HELM PEPTIDE1{[Nle].C.T.A.S.[CCCCCCCC[C@H](N[*:1])C(=O)[*:2]].P.P.Q.C.Y.[dP].P}$PEPTIDE1,PEPTIDE1,2:R3-10:R3|PEPTIDE1,PEPTIDE1,1:R1-13:R2$$$V2.0)
- Cytotoxicity LC50/GI50 Hela cells (HELA cells (Acc57)): 58 µM
- Cathepsin G at 100 μM % [15]: 61.3 at 100%
- Thrombin at 100 μM % [16]: 13.1%
- FXa at 100 μM % [17]: 8.7%
- IC50 ([4]; Elastase IC50): 28 nM
- IC50 [13]: 100 µM

Compound: CCCC[C@@H]1NC(=O)[C@@H]2CCCN2C(=O)[C@@H](C)NC(=O)[C@H](Cc2ccc(O)cc2)NC(=O)[C@@H]2CSSC[C@H](NC1=O)C(=O)N[C@@H]([C@@H](C)O)C(=O)N[C@@H](C)C(=O)N[C@@H](CO)C(=O)N[C@@H]([C@@H](C)CC)C(=O)N1CCC[C@H]1C(=O)N1CCC[C@H]1C(=O)N[C@@H](CCC(N)=O)C(=O)N2 [Ex. 130] (HELM PEPTIDE1{[Nle].C.T.A.S.I.P.P.Q.C.Y.[dA].P}$PEPTIDE1,PEPTIDE1,2:R3-10:R3|PEPTIDE1,PEPTIDE1,1:R1-13:R2$$$V2.0)
- Chymase at 100 μM % (Chymase, from human skin [2]): <4000%
- IC50 ([4]; Elastase IC50): 29 nM

Compound: CCCC[C@@H]1NC(=O)[C@@H]2CCCN2C(=O)[C@H]2CCCN2C(=O)[C@H](CCC(N)=O)NC(=O)[C@@H]2CSSC[C@H](NC1=O)C(=O)N[C@@H]([C@@H](C)O)C(=O)N[C@@H](C)C(=O)N[C@@H](CO)C(=O)N[C@@H]([C@@H](C)CC)C(=O)N1CCC[C@H]1C(=O)N1CCC[C@H]1C(=O)N[C@@H](CCC(N)=O)C(=O)N2 [Ex. 131] (HELM PEPTIDE1{[Nle].C.T.A.S.I.P.P.Q.C.Q.[dP].P}$PEPTIDE1,PEPTIDE1,2:R3-10:R3|PEPTIDE1,PEPTIDE1,1:R1-13:R2$$$V2.0)
- Trypsin at 100 μM % [1]: 0%
- IC50 ([4]; read-out: Elastase IC50): 28 nM
- IC50 [5]: 45 nM
